Assay results taken from ChEMBL document CHEMBL4270481, “ALK5 kinase inhibitory activity and synthesis of 2,3,4-substituted 5,5-dimethyl-5,6-dihydro-4H-pyrrolo[1,2-b]pyrazoles” (Eur J Med Chem, 2017).
Activity calls are given as the source filed them. The calls are words filed in the database; no cut-off is given here.

Assays:
[1] = target: Glycogen synthase kinase-3 beta (Homo sapiens) (UniProt P49841); test: Inhibition of GSK3beta (unknown origin) assessed as residual enzyme activity at 1 uM relative to untreated control
Chain of Glycogen synthase kinase-3 beta (Homo sapiens) (P49841 whole entry, looked up): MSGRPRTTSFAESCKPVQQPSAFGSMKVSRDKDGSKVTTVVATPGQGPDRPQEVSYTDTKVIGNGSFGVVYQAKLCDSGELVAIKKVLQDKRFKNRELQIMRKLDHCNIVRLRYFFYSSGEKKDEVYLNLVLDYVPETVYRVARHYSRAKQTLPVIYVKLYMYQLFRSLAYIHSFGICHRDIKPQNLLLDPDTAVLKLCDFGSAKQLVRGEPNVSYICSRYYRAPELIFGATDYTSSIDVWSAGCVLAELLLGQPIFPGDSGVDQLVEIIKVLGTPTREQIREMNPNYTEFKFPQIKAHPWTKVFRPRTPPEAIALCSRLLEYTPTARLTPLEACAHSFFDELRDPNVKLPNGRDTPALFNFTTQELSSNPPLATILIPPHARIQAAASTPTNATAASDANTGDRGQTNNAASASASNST

[2] = target: Mitogen-activated protein kinase 8 (Homo sapiens) (UniProt P45983); test: Inhibition of JNK1 (unknown origin) assessed as residual enzyme activity at 1 uM relative to untreated control
Chain of Mitogen-activated protein kinase 8 (Homo sapiens) (P45983 whole entry): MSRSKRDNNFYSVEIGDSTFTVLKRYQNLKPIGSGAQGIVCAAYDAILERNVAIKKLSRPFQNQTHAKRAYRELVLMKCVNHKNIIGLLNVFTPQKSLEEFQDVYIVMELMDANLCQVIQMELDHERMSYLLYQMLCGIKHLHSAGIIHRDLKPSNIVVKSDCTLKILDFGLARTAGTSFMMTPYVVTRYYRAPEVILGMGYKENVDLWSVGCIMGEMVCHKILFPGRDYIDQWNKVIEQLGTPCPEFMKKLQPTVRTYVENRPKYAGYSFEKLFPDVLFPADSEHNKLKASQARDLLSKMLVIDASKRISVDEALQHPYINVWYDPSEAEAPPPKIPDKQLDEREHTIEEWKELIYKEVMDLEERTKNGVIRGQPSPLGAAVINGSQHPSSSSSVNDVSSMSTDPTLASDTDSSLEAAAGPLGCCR

[3] = target: Mitogen-activated protein kinase kinase kinase 7 (Homo sapiens) (UniProt O43318); test: Inhibition of TAK1 (unknown origin) assessed as residual enzyme activity at 1 uM relative to untreated control
Chain of Mitogen-activated protein kinase kinase kinase 7 (Homo sapiens) (O43318 whole entry): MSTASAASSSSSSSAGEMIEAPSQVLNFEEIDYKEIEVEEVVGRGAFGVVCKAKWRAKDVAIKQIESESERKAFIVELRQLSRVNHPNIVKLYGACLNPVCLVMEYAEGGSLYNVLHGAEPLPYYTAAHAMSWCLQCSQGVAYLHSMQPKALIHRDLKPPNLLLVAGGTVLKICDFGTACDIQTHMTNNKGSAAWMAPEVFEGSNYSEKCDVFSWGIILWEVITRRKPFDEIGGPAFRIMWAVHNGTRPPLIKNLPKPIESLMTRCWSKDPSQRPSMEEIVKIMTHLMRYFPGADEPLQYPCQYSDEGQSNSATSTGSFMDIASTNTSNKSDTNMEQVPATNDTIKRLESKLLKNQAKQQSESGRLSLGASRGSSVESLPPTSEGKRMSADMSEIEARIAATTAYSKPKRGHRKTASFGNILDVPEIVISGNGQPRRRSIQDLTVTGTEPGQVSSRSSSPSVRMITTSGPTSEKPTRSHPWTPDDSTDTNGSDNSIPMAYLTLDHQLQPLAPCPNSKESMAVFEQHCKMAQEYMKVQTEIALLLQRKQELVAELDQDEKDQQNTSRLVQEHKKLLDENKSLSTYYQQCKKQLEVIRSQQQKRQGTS

[4] = target: Eukaryotic elongation factor 2 kinase (Homo sapiens) (UniProt O00418); test: Inhibition of EF2K (unknown origin) assessed as residual enzyme activity at 1 uM relative to untreated control
[5] = target: Serine/threonine-protein kinase Chk2 (Homo sapiens) (UniProt O96017); test: Inhibition of CHK2 (unknown origin) assessed as residual enzyme activity at 1 uM relative to untreated control
K562 = test: Cytotoxicity against human K562 cells assessed as decrease in cell proliferation after 72 hrs by calcein AM staining-based assay; assay type: functional; conditions: K562, 72 h
[6] = target: Ribosomal protein S6 kinase beta-1 (Homo sapiens) (UniProt P23443); test: Inhibition of S6K1 (unknown origin) assessed as residual enzyme activity at 1 uM relative to untreated control
Chain of Ribosomal protein S6 kinase beta-1 (Homo sapiens) (P23443 whole entry, looked up): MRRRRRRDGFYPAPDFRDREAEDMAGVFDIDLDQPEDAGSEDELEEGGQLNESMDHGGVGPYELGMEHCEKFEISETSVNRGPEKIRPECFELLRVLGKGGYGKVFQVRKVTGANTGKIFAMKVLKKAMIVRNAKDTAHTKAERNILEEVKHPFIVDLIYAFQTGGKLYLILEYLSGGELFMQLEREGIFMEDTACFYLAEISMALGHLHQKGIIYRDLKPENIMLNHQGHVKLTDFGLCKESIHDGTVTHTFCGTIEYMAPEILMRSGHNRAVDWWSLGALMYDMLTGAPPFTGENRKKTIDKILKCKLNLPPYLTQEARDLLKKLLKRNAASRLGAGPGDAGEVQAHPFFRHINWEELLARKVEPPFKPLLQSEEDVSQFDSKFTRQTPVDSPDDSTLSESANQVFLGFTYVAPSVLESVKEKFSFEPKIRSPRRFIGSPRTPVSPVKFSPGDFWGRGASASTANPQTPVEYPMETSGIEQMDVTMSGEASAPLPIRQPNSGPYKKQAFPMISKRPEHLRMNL

[7] = target: T1, TGF-beta receptor type-1 (Homo sapiens) (UniProt P36897); test: Inhibition of human ALK5 expressed in Sf9 insect cells assessed as residual enzyme activity at 1 uM using casein as substrate in presence of [gamma-33P]ATP relative to untreated control
T1 sequence (whole entry): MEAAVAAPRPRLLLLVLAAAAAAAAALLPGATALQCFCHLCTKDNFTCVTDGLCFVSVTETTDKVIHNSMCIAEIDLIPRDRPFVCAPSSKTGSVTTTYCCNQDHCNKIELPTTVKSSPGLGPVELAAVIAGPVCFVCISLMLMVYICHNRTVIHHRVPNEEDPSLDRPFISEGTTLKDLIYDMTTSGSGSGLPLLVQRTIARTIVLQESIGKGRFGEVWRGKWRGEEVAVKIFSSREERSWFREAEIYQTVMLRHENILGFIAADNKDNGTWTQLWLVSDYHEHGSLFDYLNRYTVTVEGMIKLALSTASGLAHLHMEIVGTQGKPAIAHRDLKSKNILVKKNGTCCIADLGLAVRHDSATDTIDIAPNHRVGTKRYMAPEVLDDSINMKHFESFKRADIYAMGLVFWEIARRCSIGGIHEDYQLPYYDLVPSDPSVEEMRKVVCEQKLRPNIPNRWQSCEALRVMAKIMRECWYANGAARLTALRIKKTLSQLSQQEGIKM

[8] = target: Dual specificity mitogen-activated protein kinase kinase 1 (Homo sapiens) (UniProt Q02750); test: Inhibition of MKK1 (unknown origin) assessed as residual enzyme activity at 1 uM relative to untreated control
Chain of Dual specificity mitogen-activated protein kinase kinase 1 (Homo sapiens) (Q02750 whole entry): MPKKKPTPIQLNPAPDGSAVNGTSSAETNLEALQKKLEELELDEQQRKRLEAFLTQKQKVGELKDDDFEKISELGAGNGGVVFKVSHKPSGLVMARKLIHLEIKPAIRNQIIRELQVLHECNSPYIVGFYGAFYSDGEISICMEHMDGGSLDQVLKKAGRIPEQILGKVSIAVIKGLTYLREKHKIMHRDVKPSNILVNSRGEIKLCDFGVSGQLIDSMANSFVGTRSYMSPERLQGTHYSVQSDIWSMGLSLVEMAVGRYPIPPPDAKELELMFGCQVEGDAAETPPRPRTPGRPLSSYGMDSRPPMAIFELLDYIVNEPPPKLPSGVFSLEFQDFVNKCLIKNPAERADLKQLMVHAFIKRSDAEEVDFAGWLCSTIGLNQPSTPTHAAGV

[9] = target: Myosin light chain kinase, smooth muscle (Homo sapiens) (UniProt Q15746); test: Inhibition of SmMLCK (unknown origin) assessed as residual enzyme activity at 1 uM relative to untreated control
[10] = target: Mitogen-activated protein kinase kinase kinase 11 (Homo sapiens) (UniProt Q16584); test: Inhibition of MLK3 (unknown origin) assessed as residual enzyme activity at 1 uM relative to untreated control
Chain of Mitogen-activated protein kinase kinase kinase 11 (Homo sapiens) (Q16584 whole entry, looked up): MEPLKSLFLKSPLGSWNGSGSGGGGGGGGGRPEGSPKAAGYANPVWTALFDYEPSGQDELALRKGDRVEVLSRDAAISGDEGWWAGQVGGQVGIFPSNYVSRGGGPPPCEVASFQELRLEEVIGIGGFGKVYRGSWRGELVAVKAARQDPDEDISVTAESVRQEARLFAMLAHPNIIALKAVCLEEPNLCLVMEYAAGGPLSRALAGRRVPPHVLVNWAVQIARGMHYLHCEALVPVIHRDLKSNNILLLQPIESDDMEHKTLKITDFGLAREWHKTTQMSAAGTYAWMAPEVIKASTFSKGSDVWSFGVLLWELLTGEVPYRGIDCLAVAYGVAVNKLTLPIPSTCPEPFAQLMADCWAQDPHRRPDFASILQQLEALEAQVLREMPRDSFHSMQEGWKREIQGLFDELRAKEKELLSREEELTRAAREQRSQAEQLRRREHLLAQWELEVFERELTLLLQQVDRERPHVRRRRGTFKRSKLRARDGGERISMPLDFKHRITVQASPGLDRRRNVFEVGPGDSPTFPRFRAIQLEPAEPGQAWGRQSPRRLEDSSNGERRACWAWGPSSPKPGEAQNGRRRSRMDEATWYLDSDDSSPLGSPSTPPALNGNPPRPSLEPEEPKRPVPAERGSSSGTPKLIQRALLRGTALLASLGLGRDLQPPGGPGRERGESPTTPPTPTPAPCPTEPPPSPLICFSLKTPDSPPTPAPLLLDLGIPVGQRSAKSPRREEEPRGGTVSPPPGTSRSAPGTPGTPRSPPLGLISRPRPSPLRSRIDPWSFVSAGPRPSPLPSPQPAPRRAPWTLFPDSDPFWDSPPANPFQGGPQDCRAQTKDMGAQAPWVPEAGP

[11] = target: High affinity nerve growth factor receptor (Homo sapiens) (UniProt P04629); test: Inhibition of TRKA (unknown origin) assessed as residual enzyme activity at 1 uM relative to untreated control
[12] = target: Mitogen-activated protein kinase 14 (Homo sapiens) (UniProt Q16539); test: Inhibition of p38alpha (unknown origin) assessed as residual enzyme activity at 1 uM relative to untreated control
[13] = target: T1, TGF-beta receptor type-1 (Homo sapiens); conditions: HeLa, at 1 µM
Description: Inhibition of ALK5 in serum starved human HeLa cells assessed as reduction in TGF-beta-induced SMAD2/3 nuclear transaction at 1 uM pre-incubated for 30 mins before TGF-beta stimulation for 30 mins by immunofluorescence analysis

[14] = target: Proto-oncogene tyrosine-protein kinase Src (Homo sapiens) (UniProt P12931); test: Inhibition of SRC (unknown origin) assessed as residual enzyme activity at 1 uM relative to untreated control
Chain of Proto-oncogene tyrosine-protein kinase Src (Homo sapiens) (P12931 2-536 limits assumed): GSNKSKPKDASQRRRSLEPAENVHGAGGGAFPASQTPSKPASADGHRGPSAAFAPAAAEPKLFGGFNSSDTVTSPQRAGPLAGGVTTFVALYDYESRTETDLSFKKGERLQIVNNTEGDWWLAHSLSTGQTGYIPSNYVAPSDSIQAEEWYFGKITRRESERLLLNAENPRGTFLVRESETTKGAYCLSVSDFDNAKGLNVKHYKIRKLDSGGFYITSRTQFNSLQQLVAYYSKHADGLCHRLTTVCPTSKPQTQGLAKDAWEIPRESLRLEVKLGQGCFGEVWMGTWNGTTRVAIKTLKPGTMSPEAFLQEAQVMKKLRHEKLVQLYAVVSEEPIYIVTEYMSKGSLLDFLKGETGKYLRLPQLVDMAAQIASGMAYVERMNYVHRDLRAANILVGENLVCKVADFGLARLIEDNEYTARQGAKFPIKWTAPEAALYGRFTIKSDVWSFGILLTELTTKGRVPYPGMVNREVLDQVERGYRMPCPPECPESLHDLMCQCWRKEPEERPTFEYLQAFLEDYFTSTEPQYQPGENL

[15] = target: SRSF protein kinase 1 (Homo sapiens) (UniProt Q96SB4); test: Inhibition of SRPK1 (unknown origin) assessed as residual enzyme activity at 1 uM relative to untreated control
Chain of SRSF protein kinase 1 (Homo sapiens) (Q96SB4 whole entry): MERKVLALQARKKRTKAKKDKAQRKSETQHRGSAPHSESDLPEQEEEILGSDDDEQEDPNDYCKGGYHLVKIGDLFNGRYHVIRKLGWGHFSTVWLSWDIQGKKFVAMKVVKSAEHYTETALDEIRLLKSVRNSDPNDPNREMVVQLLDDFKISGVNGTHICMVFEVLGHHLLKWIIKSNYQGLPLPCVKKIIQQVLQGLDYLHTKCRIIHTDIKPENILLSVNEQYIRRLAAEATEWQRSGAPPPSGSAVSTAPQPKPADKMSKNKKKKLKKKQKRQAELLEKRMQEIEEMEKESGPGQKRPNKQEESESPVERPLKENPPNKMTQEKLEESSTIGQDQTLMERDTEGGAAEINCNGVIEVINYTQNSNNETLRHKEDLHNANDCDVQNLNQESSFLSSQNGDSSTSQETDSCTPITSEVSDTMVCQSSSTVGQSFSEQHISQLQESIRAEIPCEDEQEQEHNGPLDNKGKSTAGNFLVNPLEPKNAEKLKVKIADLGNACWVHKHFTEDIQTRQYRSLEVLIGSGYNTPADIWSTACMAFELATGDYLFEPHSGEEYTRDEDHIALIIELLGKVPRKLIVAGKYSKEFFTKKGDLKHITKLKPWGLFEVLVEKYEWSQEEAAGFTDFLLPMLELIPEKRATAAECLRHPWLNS

[16] = target: Serine/threonine-protein kinase 3 (Homo sapiens) (UniProt Q13188); test: Inhibition of MST2 (unknown origin) assessed as residual enzyme activity at 1 uM relative to untreated control
Chain of Serine/threonine-protein kinase 3 (Homo sapiens) (Q13188 whole entry): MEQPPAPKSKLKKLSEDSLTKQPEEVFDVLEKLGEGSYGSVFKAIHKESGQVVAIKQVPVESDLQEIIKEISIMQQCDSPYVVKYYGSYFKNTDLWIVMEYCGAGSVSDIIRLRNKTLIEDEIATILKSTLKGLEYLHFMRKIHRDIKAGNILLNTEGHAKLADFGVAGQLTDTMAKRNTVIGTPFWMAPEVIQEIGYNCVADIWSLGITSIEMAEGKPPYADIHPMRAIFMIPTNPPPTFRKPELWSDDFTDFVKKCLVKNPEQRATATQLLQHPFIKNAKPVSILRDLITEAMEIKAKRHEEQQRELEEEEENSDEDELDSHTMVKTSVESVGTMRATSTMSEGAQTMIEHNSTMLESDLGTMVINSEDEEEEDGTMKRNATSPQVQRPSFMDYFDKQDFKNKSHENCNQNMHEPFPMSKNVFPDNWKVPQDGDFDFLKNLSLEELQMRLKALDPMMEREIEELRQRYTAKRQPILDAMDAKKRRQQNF

[17] = target: Calcium/calmodulin-dependent protein kinase kinase 2 (Homo sapiens) (UniProt Q96RR4); test: Inhibition of CAMKKbeta (unknown origin) assessed as residual enzyme activity at 1 uM relative to untreated control
[18] = target: Casein kinase 2 (Homo sapiens) (UniProt P67870+P68400+P19784+Q8NEV1); test: Inhibition of CK2 (unknown origin) assessed as residual enzyme activity at 1 uM relative to untreated control; assay type: protein assay
[19] = target: Insulin-like growth factor 1 receptor (Homo sapiens) (UniProt P08069); test: Inhibition of IGF1R (unknown origin) assessed as residual enzyme activity at 1 uM relative to untreated control
[20] = target: Tyrosine-protein kinase Lck (Homo sapiens) (UniProt P06239); test: Inhibition of LCK (unknown origin) assessed as residual enzyme activity at 1 uM relative to untreated control
[21] = target: Rho-associated protein kinase 2 (Homo sapiens) (UniProt O75116); test: Inhibition of ROCK2 (unknown origin) assessed as residual enzyme activity at 1 uM relative to untreated control
[22] = target: Homeodomain-interacting protein kinase 2 (Homo sapiens) (UniProt Q9H2X6); test: Inhibition of HIPK2 (unknown origin) assessed as residual enzyme activity at 1 uM relative to untreated control
[23] = target: Vascular endothelial growth factor receptor (Homo sapiens) (UniProt P17948+P35916+P35968); test: Inhibition of VEGFR (unknown origin) assessed as residual enzyme activity at 1 uM relative to untreated control; assay type: protein assay
[24] = target: Dual specificity tyrosine-phosphorylation-regulated kinase 1A (Homo sapiens) (UniProt Q13627); test: Inhibition of DYRK1A (unknown origin) assessed as residual enzyme activity at 1 uM relative to untreated control
TGF-beta receptor type-1 = target: T2, TGF-beta receptor type-1 (Homo sapiens, UniProt P36897); test: Inhibition of human ALK5 expressed in Sf9 insect cells using casein as substrate in presence of [gamma-33P]ATP; assay type: cell-based
T2 sequence (P36897 whole entry): T1 sequence (whole entry)

[25] = target: Serine/threonine-protein kinase Nek6 (Homo sapiens) (UniProt Q9HC98); test: Inhibition of NEK6 (unknown origin) assessed as residual enzyme activity at 1 uM relative to untreated control
[26] = target: T1, TGF-beta receptor type-1 (Homo sapiens); test: Inhibition of ALK5 in serum starved human HeLa cells assessed as reduction in TGF-beta-induced SMAD2/3 nuclear transaction at 10 uM pre-incubated for 30 mins before TGF-beta stimulation for 30 mins by immunofluorescence analysis; assay type: cell-based
[27] = target: Serine/threonine-protein kinase PLK1 (Homo sapiens) (UniProt P53350); test: Inhibition of PLK1 (unknown origin) assessed as residual enzyme activity at 1 uM relative to untreated control

SMILES: Cc1cccc(-c2nn3c(c2-c2ccc(O)cc2)C(C)C(C)(C)C3)n1 (centres undefined)
- Activity [1]: 60 to 80%
- Activity [2]: > 80%
- Activity [3]: > 80%
- Activity [4]: > 80%
- Activity [5]: > 80%
- IC50 (K562): > 100000 nM
- Activity [6]: > 80%
- Activity [7]: 6%
- Activity [8]: > 80%
- Activity [9]: > 80%
- Activity [10]: 34%
- Activity [11]: > 80%
- Activity [12]: 9%
- inhibition [13]: Active
- Activity [14]: > 80%
- Activity [15]: > 80%
- Activity [16]: > 80%
- Activity [17]: > 80%
- Activity [18]: 60 to 80%
- Activity [19]: > 80%
- Activity [20]: > 80%
- Activity [21]: > 80%
- Activity [22]: > 80%
- Activity [23]: 60 to 80%
- Activity [24]: > 80%
- IC50 (TGF-beta receptor type-1): 80 nM
- Activity [25]: > 80%
- inhibition [26]: 100%
- Activity [27]: > 80%
